{"source": "patent US6410054B1", "about": "“Immediate release eplerenone compositions” (G. D. Searle & Co., priority 1998, dated 2002)", "key": {"[1]": {"assay": "Single dose study: plasma pharmacokinetics of eplerenone, open lactone ring form, spironolactone", "details": "open ring lactone in plasma", "procedure": "The pharmacokinetics, safety and antialdosterone activity of single 10, 50, 100, 300 and 1000 mg oral doses of eplerenone were evaluated in a single-center, randomized, double-blind, placebo-controlled study.\nThe study employed seven parallel dose groups of eight healthy male humans.\nThe eplerenone capsules administered corresponded to the capsules (or combinations of the capsules) disclosed in Examples 4, 5, 7 and 8 above. The placebo was a conventional capsule containing lactose. […] The fludrocortisone used in the study consisted of commercially available fludrocortisone tablets (Florinef®, Squibb BV).\nThe subjects, who underwent a ten hour food fast prior to administration of the dose, received a single oral dose of one of the study medications together with about 180 mL of water at 0800 hours. […] Each dose of fludrocortisone was administered with 150 mL of water except for the 1.0 mg dose which was administered with 200 mL of water.\nThe plasma samples collected from subjects dosed with eplerenone were assayed for concentrations of eplerenone and the open lactone ring form of eplerenone. […] A subset of plasma samples was also assayed for testosterone levels. The urine collected was analyzed to determine concentrations and amounts of eplerenone and the open lactone ring form of eplerenone, the amount of sodium and potassium excreted, and the urinary log10 (sodium/potassium) ratio."}, "[2]": {"assay": "ADME study of [14C]eplerenone oral solution: plasma, whole blood, saliva pharmacokinetics", "format": "in vivo, humans", "details": "for Plasma Concentration: 100 mg oral solution of [14C]eplerenone", "procedure": "An open-label, single dose study was employed to evaluate the absorption, distribution, metabolism and elimination profile of a single 100 mg dose of an oral solution of eplerenone.\nThe study employed eight healthy male humans. Each subject received a single 100 mg oral dose of a solution of [^14C]eplerenone (specific activity 0.75 μCi/mg). Plasma, saliva, breath, urine and fecal samples were collected at predetermined intervals and analyzed for sample radioactivity and the concentration of eplerenone and its open lactone ring form. Safety was determined on the basis of laboratory tests, vital signs, and the occurrence and types of adverse events.\nThe subjects, who underwent an overnight food fast prior to administration of the dose, received at 0800 hours a single 100 mg oral dose of an aqueous oral solution of radiolabeled eplerenone reconstituted in 80 mL of an apple juice/hydroxypropyl-β-cyclodextrin mixture. The subjects swallowed about 200 mL of water one, two and three hours post dosing.\nBlood samples were collected at −0.5 (predose), 0.5, 1, 1.5, 2, 2.5, 3, 4, 6, 8, 12, 16, 24, 36, 48, 72 and 96 hours post dose. […] Individual fecal samples were collected beginning immediately after dosing and continuing through 0800 hours on day 8. In addition, one predose fecal sample was provided. Saliva samples were taken at 0.5 hour predose and at 0.5, 1, 2, 4, 6, 12, and 24 hours postdose. Breath samples were taken at 0.5 hour predose and at 1, 2, 3, 4, 6, 8, 12, 24, 36, 48 and 72 hours postdose."}, "[3]": {"details": "plasma, 100 mg eplerenone oral solution, single dose"}}}
{"compound": "COC(=O)C1CC2=CC(=O)CCC2(C)C23OC2CC2(C)C(CCC2(O)CCC(=O)O)C13", "note": "(stereo not shown) [Open Ring Lactone]", "values": [{"measurement": "AUC(0-96)", "setting": "[1]; 50 mg Epl. single oral dose", "value": "142.8 (ng/mL) hr"}, {"measurement": "Mean Residence Time", "setting": "[1]; 50 mg Epl. single oral dose", "value": 2.8, "unit": "h"}, {"measurement": "Oral Clearance", "setting": "[1]; 50 mg Epl. single oral dose", "value": 491.3, "unit": "L/h"}, {"measurement": "T1/2", "setting": "[1]; 50 mg Epl. single oral dose", "value": 2.7, "unit": "h"}, {"measurement": "Tmax", "setting": "[1]; 50 mg Epl. single oral dose", "value": 1.0, "unit": "h"}, {"measurement": "AUC(0-96)", "setting": "[1]; 100 mg Epl. single oral dose", "value": "246.8 (ng/mL) hr"}, {"measurement": "Mean Residence Time", "setting": "[1]; 100 mg Epl. single oral dose", "value": 3.3, "unit": "h"}, {"measurement": "Oral Clearance", "setting": "[1]; 100 mg Epl. single oral dose", "value": 445.2, "unit": "L/h"}, {"measurement": "T1/2", "setting": "[1]; 100 mg Epl. single oral dose", "value": 2.7, "unit": "h"}, {"measurement": "Tmax", "setting": "[1]; 100 mg Epl. single oral dose", "value": 1.1, "unit": "h"}, {"measurement": "AUC(0-96)", "setting": "[1]; 300 mg Epl. single oral dose", "value": "1065.1 (ng/mL) hr"}, {"measurement": "Mean Residence Time", "setting": "[1]; 300 mg Epl. single oral dose", "value": 4.2, "unit": "h"}, {"measurement": "Oral Clearance", "setting": "[1]; 300 mg Epl. single oral dose", "value": 299.8, "unit": "L/h"}, {"measurement": "T1/2", "setting": "[1]; 300 mg Epl. single oral dose", "value": 2.8, "unit": "h"}, {"measurement": "Tmax", "setting": "[1]; 300 mg Epl. single oral dose", "value": 1.3, "unit": "h"}, {"measurement": "AUC(0-96)", "setting": "[1]; 1000 mg Epl. single oral dose", "value": "3483.5 (ng/mL) hr"}, {"measurement": "Mean Residence Time", "setting": "[1]; 1000 mg Epl. single oral dose", "value": 5.7, "unit": "h"}, {"measurement": "Oral Clearance", "setting": "[1]; 1000 mg Epl. single oral dose", "value": 330.7, "unit": "L/h"}, {"measurement": "T1/2", "setting": "[1]; 1000 mg Epl. single oral dose", "value": 2.6, "unit": "h"}, {"measurement": "Tmax", "setting": "[1]; 1000 mg Epl. single oral dose", "value": 2.5, "unit": "h"}, {"measurement": "Plasma Concentration", "setting": "[2]; 0.5 hours after dosing", "value": 63.2, "unit": "ng/mL"}, {"measurement": "Plasma Concentration", "setting": "[2]; 1.0 hours after dosing", "value": 78.0, "unit": "ng/mL"}, {"measurement": "Plasma Concentration", "setting": "[2]; 1.5 hours after dosing", "value": 70.8, "unit": "ng/mL"}, {"measurement": "Plasma Concentration", "setting": "[2]; 2.0 hours after dosing", "value": 59.9, "unit": "ng/mL"}, {"measurement": "Plasma Concentration", "setting": "[2]; 2.5 hours after dosing", "value": 51.0, "unit": "ng/mL"}, {"measurement": "Plasma Concentration", "setting": "[2]; 3.0 hours after dosing", "value": 46.9, "unit": "ng/mL"}, {"measurement": "Plasma Concentration", "setting": "[2]; 4.0 hours after dosing", "value": 41.9, "unit": "ng/mL"}, {"measurement": "Plasma Concentration", "setting": "[2]; 6.0 hours after dosing", "value": 23.0, "unit": "ng/mL"}, {"measurement": "Plasma Concentration", "setting": "[2]; 8.0 hours after dosing", "value": 13.0, "unit": "ng/mL"}, {"measurement": "Plasma Concentration", "setting": "[2]; 48.0 hours after dosing", "value": 0, "unit": "ng/mL"}, {"measurement": "Plasma Concentration", "setting": "[2]; 72.0 hours after dosing", "value": 0, "unit": "ng/mL"}, {"measurement": "Plasma Concentration", "setting": "[2]; −0.5 hours after dosing", "value": 0, "unit": "ng/mL"}, {"measurement": "AUC(0-96)", "setting": "[2]; [3]", "value": "352.2 (ng/mL) hr"}, {"measurement": "Mean Residence Time", "setting": "[2]; [3]", "value": 3.4, "unit": "h"}, {"measurement": "Oral Clearance", "setting": "[2]; [3]", "value": 306.3, "unit": "L/h"}, {"measurement": "T1/2", "setting": "[2]; [3]", "value": 3.1, "unit": "h"}, {"measurement": "Tmax", "setting": "[2]; [3]", "value": 1.1, "unit": "h"}]}
